The values below come from US20140356325A1, “NOVEL 2'-C-METHYL NUCLEOSIDE DERIVATIVE COMPOUNDS” (Ligand Pharmaceuticals Incorporated, priority 2012, published 2014).

SMILES strings stand for the structures.

The melting point is the temperature of the solid-liquid transition.

The subject of data set [1] is purine salvage pathway enzymes such as adenosine deaminase and purine nucleoside phosphorylase. The settings on record: cited from earlier work.
Data set [2] has as its system HCV replication in human liver tissue. Kind of data set: HCV-infected human liver slice assay. The data set is classed as cell-based. As for the experimental part:
Inhibition of HCV replication in human liver tissue is evaluated using the following assay. Procurement. Liver from a brain-dead HCV antibody-positive human patient is perfused with ice-cold Viaspan (Dupont Pharmaceutical) preservation solution and received on ice in Viaspan. Precision-cut liver slices of ˜200-250 μm thickness and […] are prepared and cultured in Waymouth's cell culture medium (Gibco, Inc.) that is supplemented with 10% fetal bovine serum and 10 mL/L Fungi-Bact at 37° C., and gassed with carbogen (95% O2, 5% CO2) at 0.75 liters/min. Tissue slices are maintained in culture for 72 h. Cell culture medium containing test compound in solution is changed on a daily basis. At appropriate times of liver slice incubation, liver slices and medium are collected for analysis of HCV RNA (tissue and medium) and nucleotide levels (NTP). All collected media and tissue slices are maintained in liquid N2 until analysis. Medium and tissue samples are analyzed for HCV RNA levels according to published procedures (Bonacini et. al., 1999) which utilize an automated, multicycle, polymerase chain reaction (PCR) based technique. This assay has a lower limit of detection for HCV RNA of 100 viral copies/ml.

Turning to `C[C@@]1(O)[C@H](O)[C@@H](CO)O[C@H]1n1cnc2c(N)ncnc21` [2′-C-methyladenosine], in data set [1], the “resistance to metabolism by purine salvage pathway enzymes” value was “increased resistance to metabolism”.

As for `C[C@@]1(O)[C@H](O)[C@@H](CO)O[C@H]1n1cnc2c(=O)[nH]c(N)nc21` [2′-C-methylguanosine], in data set [2] (relative to control, untreated slices, following incubation), the “HCV RNA levels present in the liver slice culture media” value is given as “decreased”. In addition, the “amount of HCV RNA released into the culture medium” value in data set [2] (treatment for 72 h, medium from 48-72 h) is recorded as “decreases”.

As for `CCOc1nc(N)nc2c1ncn2[C@@H]1O[C@H](CO[P@@]2(=O)OCC[C@@H](c3ccccc3)O2)[C@H]2OC(=O)O[C@]21C` [Compound 182, 2(R)-(2-Amino-6-ethoxy-9(H)-purinyl)-4(R)-(4(S)-phenyl-2-oxo-1,3,2-dioxaphosphorinan-2(R)-yloxymethyl)-1(R)-methyl-7-oxo-3,6,8-trioxa-cis-bicyclo[3.3.0]octane], the melting point lay in the range of 105 to 107 °C.

Compound `C[C@@]12OC(=O)O[C@@H]1[C@@H](CO[P@@]1(=O)OCC[C@@H](c3cccc(Cl)c3)O1)O[C@H]2n1cnc2c(OCC3CC3)nc(N)nc21` [Compound 121, 2(R)-(2-Amino-6-cyclopropylmethoxy-9(H)-purinyl)-4(R)-(4(S)-(3-chlorophenyl)-2-oxo-1,3,2-dioxaphosphorinan-2(R)-yloxymethyl)-1(R)-methyl-7-oxo-3,6,8-trioxa-cis-bicyclo[3.3.0]octane] displayed a melting point of 128 to 132 °C.

Take `CCCCCOc1nc(N)nc2c1ncn2[C@@H]1O[C@H](CO[P@@]2(=O)OCC[C@@H](c3cccc(Cl)c3)O2)[C@H]2OC(=O)O[C@]21C` [Compound 150, 2(R)-(2-Amino-6-pentyloxy-9(H)-purinyl)-4(R)-(4(S)-(3-chlorophenyl)-2-oxo-1,3,2-dioxaphosphorinan-2(R)-yloxymethyl)-1(R)-methyl-7-oxo-3,6,8-trioxa-cis-bicyclo[3.3.0]octane]: the melting point was 80 to 82 °C.

As for `CCOc1nc(N)nc2c1ncn2[C@@H]1O[C@H](CO[P@@]2(=O)OCC[C@@H](c3cccc(F)c3)O2)[C@H]2OC(=O)O[C@]21C` [Compound 124, 2(R)-(2-Amino-6-ethoxy-9(H)-purinyl)-4(R)-(4(S)-(3-fluorophenyl)-2-oxo-1,3,2-dioxaphosphorinan-2(R)-yloxymethyl)-1(R)-methyl-7-oxo-3,6,8-trioxa-cis-bicyclo[3.3.0]octane], the melting point fell in the range of 88 to 90 °C.
